# Where “and” joins values, the source holds several entries; their conditions need not be identical. Identical values can stand only once.
# What was measured:
# glutathione-peroxidase = assay: In vivo effect of the additive on glutathione-peroxidase activity in plasma; design: species or system human
# Experimental: In vivo effect to the additive according to the invention on the glutathione-peroxidase activity in plasma.
# (§1) For three weeks a quantity of 3 microgrammes of Se in the form of the additive according to the invention was administered daily to a child suffering from Protein Lysine Intolerance (PLI).
# [1] = Se content in plasma during supplementation; conditions: child with Protein Lysine Intolerance, additive 3 microgrammes Se daily for three weeks, selenite as second supplementation after 13 months, successive samples
# Experimental: as §1
smiles,measurement,setting,value
O=[Se](O)O [selenite],"glutathione peroxidase activity in the plasma (change during supplementation, in words)","glutathione-peroxidase; child with PLI, during supplementation",no increase
same,glutathione-peroxidase activity,"glutathione-peroxidase; plasma, child with Protein Lysine Intolerance, additive 3 microgrammes Se daily for three weeks, selenite as second supplementation after 13 months, successive samples",0.13 U/ml and 0.12 U/ml
same,Se-content,[1],20 ng/mL and 22 ng/mL and 24 ng/mL and 23 ng/mL
